Source: a compilation of properties of binary mixtures
Blank lines part the entries; values can stand above or below the molecule they belong to.

Test: xn = mol fraction of the nth substance listed

- viscosity (303.15 K, 100 kPa, x2 = 0.5): 196 mPa·s
- viscosity (313.15 K, 100 kPa, x2 = 0.5): 116 mPa·s
- viscosity (323.15 K, 100 kPa, x2 = 0.5): 73.6 mPa·s
- viscosity (333.15 K, 100 kPa, x2 = 0.5): 50.6 mPa·s
- viscosity (343.15 K, 100 kPa, x2 = 0.5): 36.8 mPa·s
- viscosity (353.15 K, 100 kPa, x2 = 0.5): 29.1 mPa·s
SMILES: CCCCCCCC[n+]1ccn(C)c1C.F[B-](F)(F)F + CCCCCCCC[n+]1ccn(C)c1.F[P-](F)(F)(F)(F)F

- viscosity (298.15 K, 101 kPa, x1 = 0.3915): 15.42 mPa·s
- viscosity (298.15 K, 101 kPa, x1 = 0.7748): 21.01 mPa·s
SMILES: CCCCCCCC(=O)[O-].CCCCCC[NH+](CCCCCC)CCCCCC + O

- viscosity (293.15 K, 101 kPa, x1 = 0.0066): 1.65 mPa·s
- viscosity (293.15 K, 101 kPa, x1 = 0.0152): 2.6 mPa·s
- viscosity (293.15 K, 101 kPa, x2 = 0): 1320 mPa·s
- viscosity (293.15 K, 101 kPa, x2 = 0.9557): 6.9 mPa·s
SMILES: CC(C)C[P+](C)(CC(C)C)CC(C)C.Cc1ccc(S(=O)(=O)[O-])cc1 + O

SMILES: CCCCCCCCn1cc[n+](C)c1.[Cl-] + O
- speed of sound (298.15 K, 101 kPa, x2 = 0): 1721 m/s
- speed of sound (298.15 K, 101 kPa, x2 = 0.1484): 1666.7 m/s
- speed of sound (298.15 K, 101 kPa, x2 = 0.203): 1655.1 m/s
- speed of sound (298.15 K, 101 kPa, x2 = 0.5334): 1632.2 m/s
- speed of sound (298.15 K, 101 kPa, x2 = 0.6807): 1639.3 m/s
- speed of sound (298.15 K, 101 kPa, x2 = 0.8185): 1650.7 m/s
- speed of sound (298.15 K, 101 kPa, x2 = 0.9307): 1639.6 m/s
- speed of sound (298.15 K, 101 kPa, x2 = 0.9635): 1611.3 m/s

- viscosity (318.15 K, 100 kPa, x1 = 0.333): 178 mPa·s
SMILES: CCCCC[N+](CCCCC)(CCCCC)CCCCC.[Br-] + CCCCCCCCCC(=O)O

SMILES: CCCO + C=CC[n+]1ccn(C)c1.O=S(=O)([N-]S(=O)(=O)C(F)(F)F)C(F)(F)F
- viscosity (298.15 K, 100 kPa, x2 = 0): 1.91 mPa·s

SMILES: CC[n+]1ccn(C)c1.CS(=O)(=O)[O-] + O
- viscosity (283.15 K, 102.2 kPa, x1 = 0.75): 88.7 mPa·s
- viscosity (288.15 K, 102.2 kPa, x1 = 0.75): 69 mPa·s
- viscosity (293.15 K, 102.2 kPa, x1 = 0.75): 53.3 mPa·s
- viscosity (308.15 K, 102.2 kPa, x1 = 0.75): 28.4 mPa·s
- viscosity (318.15 K, 102.2 kPa, x1 = 0.75): 20.6 mPa·s
- viscosity (323.15 K, 102.2 kPa, x1 = 0.75): 17.9 mPa·s
- viscosity (333.15 K, 102.2 kPa, x1 = 0.75): 14 mPa·s

- viscosity (298.2 K, 100 kPa, x2 = 0.333): 47.5 mPa·s
- viscosity (298.2 K, 100 kPa, x2 = 0.667): 198 mPa·s
SMILES: c1c[nH]cn1 + CC[n+]1ccn(C)c1.[Cl-]

SMILES: CCCC[P+](CC)(CCCC)CCCC.[Br-] + OCCOCCO
- viscosity (303.15 K, 101 kPa, x1 = 0.333): 77 mPa·s
- viscosity (313.15 K, 101 kPa, x1 = 0.333): 48.93 mPa·s
- viscosity (323.15 K, 101 kPa, x1 = 0.333): 32.91 mPa·s
- viscosity (343.15 K, 101 kPa, x1 = 0.333): 16.88 mPa·s

SMILES: CCCC[n+]1ccn(C)c1.O=S(=O)([O-])C(F)(F)F + OCCOCCOCCOCCO
- viscosity (298.15 K, 101 kPa, x2 = 0): 59.8 mPa·s

SMILES: CCCCCCCCn1cc[n+](C)c1.[Br-] + O
- viscosity (298.15 K, 100 kPa, x2 = 0.9008): 31.3 mPa·s
- viscosity (298.15 K, 100 kPa, x2 = 0.9487): 7.96 mPa·s

SMILES: CC[N+](CC)(CC)CC.[Cl-] + OCC(O)CO
- viscosity (318.15 K, 100 kPa, x1 = 0.333): 94.1 mPa·s

- viscosity (313.15 K, 101 kPa, x1 = 0.0438): 2.533 mPa·s
SMILES: CCCC[P+](CCCC)(CCCC)CCCC.[Cl-] + O

- viscosity (298 K, 100 kPa, x1 = 0.5): 140 mPa·s
SMILES: CCCC[P+](CCCC)(CCCC)CCCC.[Cl-] + CCC(=O)O

SMILES: CCCC[n+]1ccn(C)c1.[Cl-] + OCCO
- electrical conductivity (303.15 K, 100 kPa, x1 = 0.333): 0.966 S/m
- electrical conductivity (303.15 K, 100 kPa, x1 = 0.5): 1.06 S/m

SMILES: CCCCCC[n+]1ccn(C)c1.O=S(=O)([N-]S(=O)(=O)C(F)(F)F)C(F)(F)F + O
- viscosity (293.15 K, 101 kPa, x2 = 0.233): 55 mPa·s

SMILES: CCCCCC[n+]1ccn(C)c1.O=S(=O)([N-]S(=O)(=O)C(F)(F)F)C(F)(F)F + Cc1ccccc1
- electrical conductivity (298.15 K, 100 kPa, x1 = 0.0811): 0.3 S/m
- electrical conductivity (298.15 K, 100 kPa, x1 = 0.1207): 0.4 S/m
- electrical conductivity (298.15 K, 100 kPa, x1 = 0.1708): 0.5 S/m
- electrical conductivity (298.15 K, 100 kPa, x1 = 0.236): 0.6 S/m
- electrical conductivity (298.15 K, 100 kPa, x1 = 0.3246): 0.6 S/m

SMILES: CCCCCC(=O)O + CCCC[N+](CCCC)(CCCC)CCCC.[Cl-]
- viscosity (298 K, 100 kPa, x2 = 0.5): 320 mPa·s

SMILES: C[N+](C)(C)CCO.O=C([O-])[C@@H]1CCCN1 + O
- viscosity (308.15 K, 100 kPa, x1 = 0.0043): 0.91 mPa·s
- viscosity (308.15 K, 100 kPa, x1 = 0.0342): 2.01 mPa·s
- viscosity (323.15 K, 100 kPa, x1 = 0.0202): 1.11 mPa·s
- viscosity (323.15 K, 100 kPa, x1 = 0.0342): 1.52 mPa·s
- viscosity (338.15 K, 100 kPa, x1 = 0.0202): 1 mPa·s
- viscosity (353.15 K, 100 kPa, x1 = 0.0202): 0.88 mPa·s
- viscosity (353.15 K, 100 kPa, x1 = 0.0342): 0.98 mPa·s

SMILES: CCCCCCCC[n+]1ccn(C)c1.O=S(=O)([N-]S(=O)(=O)C(F)(F)C(F)(F)F)C(F)(F)C(F)(F)F + O
- viscosity (293.15 K, 101 kPa, x2 = 0.148): 167 mPa·s
- electrical conductivity (295.15 K, 101 kPa, x2 = 0.148): 0.13 S/m

SMILES: CCCCCCCCn1cc[n+](C)c1C.F[P-](F)(F)(F)(F)F + CCCCCCCC[n+]1ccn(C)c1.F[P-](F)(F)(F)(F)F
- viscosity (303.15 K, 100 kPa, x2 = 0.5): 440 mPa·s
- viscosity (313.15 K, 100 kPa, x2 = 0.5): 241 mPa·s
- viscosity (323.15 K, 100 kPa, x2 = 0.5): 144 mPa·s

SMILES: CCOS(=O)(=O)[O-].CC[n+]1ccn(C)c1 + CN1CCCC1=O
- viscosity (288.15 K, 100 kPa, x1 = 1): 155.5 mPa·s
- viscosity (293.15 K, 100 kPa, x1 = 0.8821): 80.25 mPa·s
- viscosity (298.15 K, 100 kPa, x1 = 0.596): 27.95 mPa·s
- viscosity (318.15 K, 100 kPa, x1 = 0.3021): 5.615 mPa·s

- viscosity (313.15 K, 101.3 kPa, x2 = 0.667): 80.8 mPa·s
- viscosity (323.15 K, 101.3 kPa, x2 = 0.667): 49.2 mPa·s
- viscosity (333.15 K, 101.3 kPa, x2 = 0.667): 33.5 mPa·s
- viscosity (343.15 K, 101.3 kPa, x2 = 0.667): 23.06 mPa·s
- viscosity (353.15 K, 101.3 kPa, x2 = 0.667): 17.84 mPa·s
SMILES: O=C(O)CC(=O)O + CC[n+]1ccn(C)c1.[Cl-]

SMILES: CC[n+]1ccn(C)c1.O=S(=O)([N-]S(=O)(=O)C(F)(F)F)C(F)(F)F + O
- viscosity (297.55 K, 101 kPa, x1 = 0.722): 18.2 mPa·s
- viscosity (297.55 K, 101 kPa, x1 = 0.8): 21.9 mPa·s
- viscosity (297.55 K, 101 kPa, x1 = 0.941): 28.9 mPa·s
- viscosity (297.55 K, 101 kPa, x1 = 1): 36.3 mPa·s

SMILES: CC[NH3+].O=[N+]([O-])[O-] + CO
- viscosity (293.15 K, 101 kPa, x2 = 0): 44.9 mPa·s
- viscosity (293.15 K, 101 kPa, x2 = 0.4): 13.8 mPa·s
